Tests used:
[1] = system: S. aureus ATCC 25923 (Methicillin-Sensitive; MSSA); assay: BOCILLIN-FL binding after NaOH treatment (harsh pretreatment), oil blend separation; conditions: for MSSA/MRSA Ratio: MSSA (25923)/MRSA (D14906); for BOCILLIN-FL binding, fluorescence emission at 510 nm (excitation 490 nm): MSSA (25923)
Description: (§1) Two experimental approaches were used to test BOCILLIN™-FL (Molecular Probes, Invitrogen) binding to S. aureus: (1) treating cells with sodium hydroxide (NaOH), neutralizing, adding BOCILLIN™-FL, then separating the cells (harsh pretreatment); and (2) culturing cells with BOCILLIN™-FL, then separating the cells (metabolic labeling).
(§2) For the first method, S. aureus strains ATCC 25923 (Methicillin-Sensitive; MSSA) and D14906 (Methicillin-Resistant; MRSA) were cultured until exponential growth (6 hours) in tryptic soy broth (TSB). Samples of each suspension (0.9 ml in TSB) and 0.1 N NaOH (0.1 ml; ±20 μl 7.5% TRITON® X100-R) were vortexed for 5 seconds, then either neutralized immediately or after 1 minute by adding 1 M KH2PO4 (0.125 ml) and vortexing for 5 seconds. BOCILLIN™-FL (15 μl of 1.0 mg/ml) was added to the suspension, which was then vortexed, and incubated for 5 minutes at room temperature. Unbound BOCILLIN™-FL was removed by centrifuging the mixture over 0.2 ml of an oil blend optimized to separate microorganisms from culture media (1.0 part of Type DF microscope immersion oil+0.875 parts of Drakeol 5 mineral oil) at 10,000 rpm for 1 minute. The supernatant and oil layer were removed and the pellet resuspended in 3.0 ml PBS, pH 7.4. The sample was scanned in the FluoroLog-3 system at an excitation wavelength of 490 nm and the fluorescence emission at 510 nm was recorded.

[2] = system: S. aureus D14906 (Methicillin-Resistant; MRSA); assay: as above
Description: as §1, §2

[3] = system: S. aureus ATCC 25923 (MSSA); assay: BOCILLIN-FL metabolic labeling (culturing cells with BOCILLIN-FL); format: binding; conditions: for MSSA/MRSA Ratio: MSSA (25923)/MRSA (D14906); for BOCILLIN-FL binding, fluorescence emission at 510 nm (excitation 490 nm), raw data: MSSA (25923)
Description: as §1
(§3) For the second method, the two bacterial suspensions (13 ml) were mixed with BOCILLIN™-FL (175 μl of 1.0 mg/ml stock). The mixtures were aliquoted in 1.0 ml samples into microfuge tubes containing 0.2 ml of oil blend. The tubes were incubated at 37° C. for various time-points (keeping 1 set of tubes on ice for the T0 time-point). One set of tubes was removed at 30 minutes and the cells separated from free BOCILLIN™-FL by washing twice with PBS. One set of tubes was removed at 30, 52, 68, and 86 minutes and the cells separated from free BOCILLIN™-FL by centrifugation through the oil blend. The cells were recovered and resuspended in 3 ml PBS. The samples were scanned in the FluoroLog-3 system at an excitation wavelength of 490 nm and the fluorescence emission at 510 nm was recorded.

[4] = system: S. aureus D14906 (MRSA); assay: as above; format: binding
Description: as §1, §3

[5] = system: S. aureus strains ATCC 25923 (MSSA) and D14906 (MRSA); assay: Time course of BOCILLIN-FL binding
Description: Samples of S. aureus strains ATCC 25923 (MSSA) and D14906 (MRSA) were grown in BacT/ALERT SA culture media at 37° C. until exponential growth was reached (8-10 hours). The OD 660 nm of each culture was measured and both suspensions were adjusted to 0.50 with pre-warmed SA media. BOCILLIN™-FL was diluted in pre-warmed SA media, filtered through a 0.2 μm filter and kept at 37° C. Samples of the bacteria (9.0 ml) were mixed with 1.0 ml of 100 μM BOCILLIN™-FL, mixed well, and dispensed as ten 1.0 ml aliquots into microfuge tubes containing 0.2 ml of the same oil blend used in Example 1. All tubes except the T0 tube were placed at 37° C. Tubes were removed and processed at 6, 11, 16, 22, 45, 60, 75, and 91 minutes. Each tube was centrifuged for 1 minute, the supernatant was aspirated, and the pellet was resuspended in 0.1 ml PBS and then added to 3.0 ml PBS in an acrylic cuvette. The sample was scanned in the FluoroLog-3 system at an excitation wavelength of 490 nm and the fluorescence emission at 510 nm was recorded.

[6] = system: S. aureus strains ATCC 25923 (MSSA) and D14906 (MRSA); assay: Titration of BOCILLIN-FL binding
Description: Samples of S. aureus strains ATCC 25923 (MSSA) and D14906 (MRSA) were grown in BacT/ALERT SA culture media at 37° C. for about 6 hours until an OD 660 nm of about 0.35 was reached. Dilutions of BOCILLIN™-FL (0.1 ml) were prepared in SA medium and placed into culture tubes. Samples of the bacterial suspension (0.9 ml) were added to the tubes and mixed. The tubes were capped and placed in a 37° C. incubator for 60 minutes. Samples (1.0 ml) were transferred to microfuge tubes containing 0.2 ml of the same oil blend used in Example 1, centrifuged for 1 minute, aspirated, and the pellet was resuspended in 0.1 ml PBS and then added to 3.0 ml PBS, pH 7.4 in an acrylic cuvette. The sample was scanned in the FluoroLog-3 system at an excitation wavelength of 490 nm and the fluorescence emission at 510 nm was recorded.

[7] = 30′ at 37° C., washed x 2 (PBS)

Cc1cc(C)n2c1C=C1C=CC(CCC(=O)Nc3ccc(OCC(=O)N[C@@H]4C(=O)N5[C@@H]4SC(C)(C)[C@@H]5C(=O)[O-])cc3)=[N+]1[B-]2(F)F.[Na+] [BOCILLIN™-FL]
MSSA/MRSA Ratio ([1]; a = 5″ at pH 12): 2.3 | MSSA/MRSA Ratio ([1]; b = 60″ at pH 12): 1.1 | MSSA/MRSA Ratio ([1]; c = 5″ at pH 12 + TX100): 1.5 | MSSA/MRSA Ratio ([1]; d = 60″ at pH 12 + TX100): 2.0 | BOCILLIN-FL binding, fluorescence emission at 510 nm (excitation 490 nm) ([1]; a = 5″ at pH 12): 3.7 × 10^6 | BOCILLIN-FL binding, fluorescence emission at 510 nm (excitation 490 nm) ([1]; b = 60″ at pH 12): 1.0 × 10^6 | BOCILLIN-FL binding, fluorescence emission at 510 nm (excitation 490 nm) ([1]; c = 5″ at pH 12 + TX100): 0.9 × 10^6 | BOCILLIN-FL binding, fluorescence emission at 510 nm (excitation 490 nm) ([1]; d = 60″ at pH 12 + TX100): 0.8 × 10^6 | BOCILLIN-FL binding, fluorescence emission at 510 nm (excitation 490 nm) ([2]; a = 5″ at pH 12): 1.6 × 10^6 | BOCILLIN-FL binding, fluorescence emission at 510 nm (excitation 490 nm) ([2]; b = 60″ at pH 12): 0.9 × 10^6 | BOCILLIN-FL binding, fluorescence emission at 510 nm (excitation 490 nm) ([2]; c = 5″ at pH 12 + TX100): 0.6 × 10^6 | BOCILLIN-FL binding, fluorescence emission at 510 nm (excitation 490 nm) ([2]; d = 60″ at pH 12 + TX100): 0.4 × 10^6 | BOCILLIN-FL bound by the MRSA strain, less than the MSSA strain, per cell basis ([3]; BOCILLIN-FL signal normalized to the microbial tryptophan signal (FIG. 1)): 3-4 fold | MSSA/MRSA Ratio ([3]; 30′ at 37° C., separation Oil): 5.60 | MSSA/MRSA Ratio [3, 7]: 2.00 | MSSA/MRSA Ratio ([3]; 52′ at 37° C., separation Oil): 5.35 | MSSA/MRSA Ratio ([3]; 68′ at 37° C., separation Oil): 7.17 | MSSA/MRSA Ratio ([3]; 86′ at 37° C., separation Oil): 4.48 | MSSA/MRSA Ratio ([3]; T0 (ice), separation Oil): 2.36 | BOCILLIN-FL binding, fluorescence emission at 510 nm (excitation 490 nm), raw data ([3]; 30′ at 37° C., separation Oil): 1,831,790 | BOCILLIN-FL binding, fluorescence emission at 510 nm (excitation 490 nm), raw data [3, 7]: 410,830 | BOCILLIN-FL binding, fluorescence emission at 510 nm (excitation 490 nm), raw data ([3]; 52′ at 37° C., separation Oil): 1,941,930 | BOCILLIN-FL binding, fluorescence emission at 510 nm (excitation 490 nm), raw data ([3]; 68′ at 37° C., separation Oil): 2,481,450 | BOCILLIN-FL binding, fluorescence emission at 510 nm (excitation 490 nm), raw data ([3]; 86′ at 37° C., separation Oil): 2,285,980 | BOCILLIN-FL binding, fluorescence emission at 510 nm (excitation 490 nm), raw data ([3]; T0 (ice), separation Oil): 2,745,600 | BOCILLIN-FL bound by the MRSA strain, less than the MSSA strain ([3]; raw data (Table 2), metabolic labeling): 2-7 fold | BOCILLIN-FL binding, fluorescence emission at 510 nm (excitation 490 nm), raw data ([4]; 30′ at 37° C., separation Oil): 326.790 | BOCILLIN-FL binding, fluorescence emission at 510 nm (excitation 490 nm), raw data [4, 7]: 206,250 | BOCILLIN-FL binding, fluorescence emission at 510 nm (excitation 490 nm), raw data ([4]; 52′ at 37° C., separation Oil): 363,000 | BOCILLIN-FL binding, fluorescence emission at 510 nm (excitation 490 nm), raw data ([4]; 68′ at 37° C., separation Oil): 346,270 | BOCILLIN-FL binding, fluorescence emission at 510 nm (excitation 490 nm), raw data ([4]; 86′ at 37° C., separation Oil): 510,150 | BOCILLIN-FL binding, fluorescence emission at 510 nm (excitation 490 nm), raw data ([4]; T0 (ice), separation Oil): 1,163,240 | BOCILLIN-FL bound by the MSSA strain, more than the MRSA strain, per cell basis ([5]; 1.0 ml of 100 μM BOCILLIN-FL mixed with 9.0 ml bacteria, irrespective of the culture time): 2-3 times | Time at which maximal binding was measured ([5]; room temperature (the T0 tube), oil method): 5 min | Shape of the MSSA binding curve ([6]; MSSA strain, second order polynomial curve fit): biphasic | Difference in binding between the MSSA and MRSA strains ([6]; at about 0.5 μM BOCILLIN-FL): 4 fold | Difference in binding between the MSSA and MRSA strains ([6]; at about 5 μM BOCILLIN-FL): 3 fold | BOCILLIN-FL bound by the MSSA strain, more than the MRSA strain, per cell basis ([6]; depending on the BOCILLIN-FL concentration, 60 minutes at 37° C. (FIG. 3)): 2-4 fold
